Results: patent US20230114728A1 (Venatorx Pharmaceuticals, Inc., priority 2019, published 2023)
Converted amounts (≈) assume the structure as drawn.

What was measured:
Experiment in all cases: Broth microdilution MIC in CAMHB
Type in all cases: cell-based
E. coli AG100 = conditions: Escherichia coli; E. coli AG100 (wild-type parent); MHB; read-out: Minimum Inhibitory Concentration, E. coli AG100
Procedure, shortened: (§1)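 CLSI broth microdilution in CAMHB: 2-fold compound dilutions inoculated at 2-8×10^5 CFU/mL from 3-5 h log-phase cultures. Incubated at 37 °C for 16-20 h (Enterobacteriaceae, Pseudomonas); MIC read visually as lowest concentration without growth. Strains include hyper-permeable and efflux-deficient mutants.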

E. coli AG100A = conditions: Escherichia coli, read-out: Minimum Inhibitory Concentration, E. coli AG100A
Procedure, shortened: as §1

E. coli 901C = conditions: Escherichia coli; E. coli 901C (hyper-permeable); MHB; read-out: Minimum Inhibitory Concentration, E. coli 901C
Procedure, shortened: as §1

[1] = system: K. pneumoniae UMM producing SHV-5 and KPC-2; conditions: Klebsiella pneumoniae, read-out: Minimum Inhibitory Concentration, K. pneumoniae UMM
Procedure, shortened: as §1

A. baumannii ATCC 19606 = conditions: Acinetobacter baumannii, ATCC19606; MHB; read-out: Minimum Inhibitory Concentration, A. baumannii ATCC 19606
Procedure, shortened: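 CLSI microdilution; CAMHB; inoculum 2-8×10^5 CFU/mL from 3-5 h 37° C culture; 2-fold compound series; 16-20 h, 37° C; MIC = lowest well without visible growth.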

[2] = system: K. pneumoniae 848844 producing SHV-11 and KPC-2; conditions: Klebsiella pneumoniae, read-out: Minimum Inhibitory Concentration, K. pneumoniae 848844
Procedure, shortened: as §1

E. coli ATCC 25922 = conditions: Escherichia coli, ATCC25922; E. coli ATCC 25922; MHB; read-out: Minimum Inhibitory Concentration, E. coli 25922
Procedure, shortened: as §1

E. coli D22 = conditions: Escherichia coli; E. coli D22 (hyper-permeable); MHB; read-out: Minimum Inhibitory Concentration, E. coli D22
Procedure, shortened: as §1

P. aeruginosa ATCC 27853 = conditions: Pseudomonas aeruginosa, ATCC27853; MHB; read-out: Minimum Inhibitory Concentration, P. aeruginosa ATCC 27853
Procedure, shortened: as §1

[3] = system: K. pneumoniae SI-117 producing VIM-1; conditions: Klebsiella pneumoniae, read-out: Minimum Inhibitory Concentration, K. pneumoniae SI-117
Procedure, shortened: as §1

P. aeruginosa ATCC 35151 = conditions: Pseudomonas aeruginosa, ATCC35151; MHB; hyper-permeable strain; read-out: Minimum Inhibitory Concentration, P. aeruginosa ATCC 35151
Procedure, shortened: as §1

[4] = system: P. aeruginosa (ΔmexAB-oprM); conditions: Pseudomonas aeruginosa, read-out: Minimum Inhibitory Concentration, P. aeruginosa ΔmexAB-OprM
Procedure, shortened: as §1

SMILES | MIC (E. coli AG100) [µg/mL] | MIC (E. coli AG100A) [µg/mL] | MIC (E. coli 901C) [µg/mL] | MIC [1] [µg/mL] | MIC (A. baumannii ATCC 19606) [µg/mL] | MIC [2] [µg/mL] | MIC (E. coli ATCC 25922) [µg/mL] | MIC (E. coli D22) [µg/mL] | MIC (P. aeruginosa ATCC 27853) [µg/mL] | MIC [3] [µg/mL] | MIC (P. aeruginosa ATCC 35151) [µg/mL] | MIC [4] [µg/mL]
CCN1CCN(C(=O)N[C@@H](C(=O)N[C@H]2Cc3cccc(C(=O)O)c3OB2O)c2cc(O)cc(O)c2)C(=O)C1=O (single isomer, unassigned) [Example 82] | 8 to 16 (≈ 14.8 to 29.6 µM) | 2 to 4 (≈ 3.7 to 7.4 µM) | < 0.25 | 32 to 64 (≈ 59.2 to 118 µM) | 32 to 64 (≈ 59.2 to 118 µM) | > 128 | 32 to 64 (≈ 59.2 to 118 µM) | 2 to 4 (≈ 3.7 to 7.4 µM) | > 128 | 32 to 64 (≈ 59.2 to 118 µM) | < 0.25 | 32 to 64 (≈ 59.2 to 118 µM)
NCCN1CCN(C(=O)N[C@H](C(=O)N[C@H]2Cc3cccc(C(=O)O)c3OB2O)c2ccc(C(=O)O)cc2)C(=O)C1=O (single isomer, unassigned) [Example 83] | 32 to 64 (≈ 56.4 to 113 µM) | 8 to 16 (≈ 14.1 to 28.2 µM) | < 0.25 | 32 to 64 (≈ 56.4 to 113 µM) | > 128 | > 128 | 32 to 64 (≈ 56.4 to 113 µM) | 2 to 4 (≈ 3.53 to 7.05 µM) | 32 to 64 (≈ 56.4 to 113 µM) | > 128 | 0.5 to 1 (≈ 0.881 to 1.76 µM) | 8 to 16 (≈ 14.1 to 28.2 µM)
NCCN1CCN(C(=O)N[C@@H](C(=O)N[C@H]2Cc3cccc(C(=O)O)c3OB2O)c2ccc(C(=O)O)cc2)C(=O)C1=O (single isomer, unassigned) [Example 84] | 8 to 16 (≈ 14.1 to 28.2 µM) | 2 to 4 (≈ 3.53 to 7.05 µM) | 0.5 to 1 (≈ 0.881 to 1.76 µM) | 8 to 16 (≈ 14.1 to 28.2 µM) | > 128 | 32 to 64 (≈ 56.4 to 113 µM) | 8 to 16 (≈ 14.1 to 28.2 µM) | 2 to 4 (≈ 3.53 to 7.05 µM) | 32 to 64 (≈ 56.4 to 113 µM) | > 128 | 0.5 to 1 (≈ 0.881 to 1.76 µM) | 8 to 16 (≈ 14.1 to 28.2 µM)
NCCN1CCN(C(=O)N[C@H](C(=O)N[C@H]2Cc3cccc(C(=O)O)c3OB2O)c2ccc(O)cc2Cl)C(=O)C1=O (single isomer, unassigned) [Example 85] | > 128 | 32 to 64 (≈ 55.8 to 112 µM) | 8 to 16 (≈ 13.9 to 27.9 µM) | > 128 | > 128 | > 128 | > 128 | 32 to 64 (≈ 55.8 to 112 µM) | > 128 | > 128 | 2 to 4 (≈ 3.49 to 6.97 µM) | 32 to 64 (≈ 55.8 to 112 µM)
NCCN1CCN(C(=O)N[C@@H](C(=O)N[C@H]2Cc3cccc(C(=O)O)c3OB2O)c2ccc(O)cc2Cl)C(=O)C1=O (single isomer, unassigned) [Example 86] | 32 to 64 (≈ 55.8 to 112 µM) | 2 to 4 (≈ 3.49 to 6.97 µM) | 2 to 4 (≈ 3.49 to 6.97 µM) | 32 to 64 (≈ 55.8 to 112 µM) | > 128 | 32 to 64 (≈ 55.8 to 112 µM) | 32 to 64 (≈ 55.8 to 112 µM) | 8 to 16 (≈ 13.9 to 27.9 µM) | > 128 | 32 to 64 (≈ 55.8 to 112 µM) | 0.5 to 1 (≈ 0.871 to 1.74 µM) | 8 to 16 (≈ 13.9 to 27.9 µM)
NCCN1CCN(C(=O)N[C@H](C(=O)N[C@H]2Cc3cccc(C(=O)O)c3OB2O)c2ccc(O)cc2F)C(=O)C1=O (single isomer, unassigned) [Example 88] | > 128 | 32 to 64 (≈ 57.4 to 115 µM) | 8 to 16 (≈ 14.4 to 28.7 µM) | > 128 | > 128 | > 128 | > 128 | 32 to 64 (≈ 57.4 to 115 µM) | > 128 | > 128 | 2 to 4 (≈ 3.59 to 7.18 µM) | > 128
NCCN1CCN(C(=O)N[C@@H](C(=O)N[C@H]2Cc3cccc(C(=O)O)c3OB2O)c2ccc(O)cc2F)C(=O)C1=O (single isomer, unassigned) [Example 89] | 32 to 64 (≈ 57.4 to 115 µM) | 2 to 4 (≈ 3.59 to 7.18 µM) | 2 to 4 (≈ 3.59 to 7.18 µM) | 32 to 64 (≈ 57.4 to 115 µM) | > 128 | 32 to 64 (≈ 57.4 to 115 µM) | 32 to 64 (≈ 57.4 to 115 µM) | 8 to 16 (≈ 14.4 to 28.7 µM) | > 128 | 32 to 64 (≈ 57.4 to 115 µM) | 0.5 to 1 (≈ 0.897 to 1.79 µM) | 8 to 16 (≈ 14.4 to 28.7 µM)
CCN1CCN(C(=O)N[C@@H](C(=O)N[C@H]2Cc3cccc(C(=O)O)c3OB2O)c2cc(Cl)c(O)cc2Cl)C(=O)C1=O (single isomer, unassigned) [Example 91] | 8 to 16 (≈ 13.5 to 27 µM) | 2 to 4 (≈ 3.37 to 6.74 µM) | < 0.25 | 32 to 64 (≈ 53.9 to 108 µM) | > 128 | > 128 | 32 to 64 (≈ 53.9 to 108 µM) | 2 to 4 (≈ 3.37 to 6.74 µM) | > 128 | > 128 | 0.5 to 1 (≈ 0.843 to 1.69 µM) | 32 to 64 (≈ 53.9 to 108 µM)
CCN1CCN(C(=O)N[C@H](C(=O)N[C@H]2Cc3cccc(C(=O)O)c3OB2O)c2cc(Cl)c(O)cc2Cl)C(=O)C1=O (single isomer, unassigned) [Example 92] | > 128 | > 128 | 2 to 4 (≈ 3.37 to 6.74 µM) | > 128 | > 128 | > 128 | > 128 | > 128 | > 128 | > 128 | 8 to 16 (≈ 13.5 to 27 µM) | > 128
CCN1CCN(C(=O)NC(C(=O)N[C@H]2Cc3ccc(F)c(C(=O)O)c3OB2O)c2ccc(C(=O)O)cc2)C(=O)C1=O (stereo partly drawn) [Example 15, (3R)-3-(2-(4-carboxyphenyl)-2-(4-ethyl-2,3-dioxopiperazine-1-carboxamido)acetamido)-7-fluoro-2-hydroxy-3,4-dihydro-2H-benzo[e][1,2]oxaborinine-8-carboxylic acid] | > 128 | 32 to 64 (≈ 56.1 to 112 µM) | 0.5 to 1 (≈ 0.877 to 1.75 µM) | > 128 | > 128 | > 128 | > 128 | 8 to 16 (≈ 14 to 28.1 µM) | 32 to 64 (≈ 56.1 to 112 µM) | > 128 | < 0.25 | 8 to 16 (≈ 14 to 28.1 µM)
CCN1CCN(C(=O)NC(C(=O)N[C@H]2Cc3cccc(C(=O)O)c3OB2O)c2ccc(O)c(NC(C)=O)c2)C(=O)C1=O (stereo partly drawn) [Example 17, (3R)-3-(2-(3-acetamido-4-hydroxyphenyl)-2-(4-ethyl-2,3-dioxopiperazine-1-carboxamido)acetamido)-2-hydroxy-3,4-dihydro-2H-benzo[e][1,2]oxaborinine-8-carboxylic acid] | > 128 | 8 to 16 (≈ 13.8 to 27.5 µM) | 0.5 to 1 (≈ 0.86 to 1.72 µM) | 32 to 64 (≈ 55 to 110 µM) | > 128 | > 128 | > 128 | 2 to 4 (≈ 3.44 to 6.88 µM) | > 128 | > 128 | 2 to 4 (≈ 3.44 to 6.88 µM) | 8 to 16 (≈ 13.8 to 27.5 µM)
CCN1CCN(C(=O)NC(C(=O)N[C@H]2Cc3ccc(F)c(C(=O)O)c3OB2O)c2nc(N)sc2F)C(=O)C1=O (stereo partly drawn) [Example 18, (3R)-3-(2-(2-amino-5-fluorothiazol-4-yl)-2-(4-ethyl-2,3-dioxopiperazine-1-carboxamido)acetamido)-7-fluoro-2-hydroxy-3,4-dihydro-2H-benzo[e][1,2]oxaborinine-8-carboxylic acid] | 32 to 64 (≈ 56.5 to 113 µM) | 2 to 4 (≈ 3.53 to 7.06 µM) | 0.5 to 1 (≈ 0.883 to 1.77 µM) | 8 to 16 (≈ 14.1 to 28.3 µM) | > 128 | 32 to 64 (≈ 56.5 to 113 µM) | 8 to 16 (≈ 14.1 to 28.3 µM) | 2 to 4 (≈ 3.53 to 7.06 µM) | > 128 | 32 to 64 (≈ 56.5 to 113 µM) | 0.5 to 1 (≈ 0.883 to 1.77 µM) | 8 to 16 (≈ 14.1 to 28.3 µM)
